Results published in patent US4164576A, “Benzoxazine carboxamides” (Shell Oil Company, priority 1978, dated 1979).

The compounds below were run on swine adipose tissue (assay: Inhibition of lipogenesis (lipid synthesis from glucose-U-14C) in swine adipose tissue slices). Conditions: Sus scrofa, 100 micrograms per milliliter, 37° C., 2 hours, 5% DMSO, insulin, triplicate, read-out: Percent Inhibition of lipogenesis compared to control.
Assay type: cell-based
From the text: The manner in which they cause this effect is not known with certainty; it is believed that they interfere with the synthesis of fatty acids in the tissues. Their effectiveness for this purpose has been ascertained by immersing samples of swine adipose tissue in a liquid medium containing radioactive glucose and the test chemical for a period of time, then isolating the lipid from the treated tissue and determining the up-take of the radio-active carbon by means of scintillation counting techniques. These tests were conducted in swine adipose tissue because in swine, the primary site of lipogenesis--i.e., fatty acid synthesis--appears to be adipose tissue.
Described in more detail, the tests were conducted according to the following general procedure:
150 milligrams of slices of swine adipose tissue were incubated at 37° C. for 2 hours with shaking in 3 milliliters of Krebs-Rringer bicarbonate solution containing one-half the normal calcium ion concentration, 60 micromoles of glucose, 0.5 micro-Curie of glucose-U^14 C, and 300 microunits of insulin, and 5% dimethyl sulfoxide (DMSO). The test compounds were added as a solution or suspension in DMSO and were present at a concentration of 100 micrograms per milliliter of the incubation mixture.
The incubation was terminated by addition of 0.25 milliliter of 1 N sulfuric acid. The resulting mixture was extracted with a total of 25 milliliters of chloroform: methanol (2:1 v/v). The extracts were washed according to Folch et al. (J. Biol. Chem., 226, 497-509, (1957)), air dried, and counted in a liquid scintillation counter with 15 milliliters of counting fluid (two parts toluene containing 0.4% w/v New England Nuclear Omnifluor: 1 part Triton X-100). The tests were conducted in triplicate and were accompanied by control tests in which all ingredients,proportions and conditions were the same except that no test compound was included. From the data obtained were calculated the percent inhibition of lipid synthesis by the test compounds in each case. The data obtained from the tests are set out in Table 1, as the percent inhibition of lipogenesis compared to the results obtained in the control tests wherein only the test compound was omitted.
`C=CCNC(=O)C1CNc2cc(OC)ccc2O1` (centres unmarked) [Compound 7, 3,4-dihydro-6-methoxy-N-(2-propenyl)-2H-1,4-benzoxazine-2-carboxamide] showed an inhibition at 100 µg/mL of 76%. `C=CCNC(=O)C1CNc2cc(NS(C)(=O)=O)ccc2O1` (centres unmarked) [Compound 5, 3,4-dihydro-6-((methylsulfonyl)amino)-N-(2-propenyl)-2H-1,4-benzoxazine-2-carboxamide] was tested, and the inhibition at 100 µg/mL was 40%. Work on `C=CCNC(=O)C1CNc2ccc(C)cc2O1` (centres unmarked) [Compound 10, 3,4-dihydro-7-methyl-N-(2-propenyl)-2H-1,4-benzoxazine-2-carboxamide] yielded an inhibition at 100 µg/mL of 21%. Work on `C=CCNC(=O)C1CNc2ccccc2O1` (centres unmarked) [Compound 1, 3,4-dihydro-N-(2-propenyl)-2H-1,4-benzoxazine-2-carboxamide] yielded an inhibition at 100 µg/mL of 51%. Work on `C=CCNC(=O)C1CNc2cc(C(F)(F)F)ccc2O1` (centres unmarked) [Compound 6, 6-(trifluoromethyl)-3,4-dihydro-N-(2-propenyl)-2H-1,4-benzoxazine-2-carboxamide] yielded an inhibition at 100 µg/mL of 57%. In the case of `C=CCNC(=O)C1CNc2cc(C)ccc2O1` (centres unmarked) [Compound 4, 6-methyl-3,4-dihydro-N-(2-propenyl)-2H-1,4-benzoxazine-2-carboxamide], the inhibition at 100 µg/mL is reported as 57%. Work on `C=CCNC(=O)C1CNc2cc(-c3ccccc3)ccc2O1` (centres unmarked) [Compound 11, 3,4-dihydro-6-phenyl-N-(2-propenyl)-2H-1,4-benzoxazine-2-carboxamide] yielded an inhibition at 100 µg/mL of 70%. In the case of `C=CCNC(=O)C1CNc2cc(Cl)c(Cl)cc2O1` (centres unmarked) [Compound 9, 6,7-dichloro-3,4-dihydro-N-(2-propenyl)-2H-1,4-benzoxazine-2-carboxamide], the inhibition at 100 µg/mL is reported as 44%. With `C=CCNC(=O)C1CNc2cc(Cl)ccc2O1` (centres unmarked) [Compound 3, 6-chloro-3,4-dihydro-N-(2-propenyl)-2H-1,4-benzoxazine-2-carboxamide] the inhibition at 100 µg/mL was 63%. `C=CCNC(=O)C1CNc2cccc(Cl)c2O1` (centres unmarked) [Compound 8, 8-chloro-3,4-dihydro-N-(2-propenyl)-2H-1,4-benzoxazine-2-carboxamide] was tested, and the inhibition at 100 µg/mL was 24%. `C=CCNC(=O)C1CN(C)c2ccccc2O1` (centres unmarked) [Compound 2, 3,4-dihydro-4-methyl-N-(2-propenyl)-2H-1,4-benzoxazine-2-carboxamide] was tested, and the inhibition at 100 µg/mL was 40%.
